Measurements taken from patent publication US20240043903A1, “BIOSENSOR USING PET SUBSTRATE, FABRICATION METHOD THEREFOR, AND METHOD FOR INSPECTING SENSITIVITY OF MICROORGANISM TO ANTIBIOTIC BY USING SAME” (priority 2020, published 2024).

Tested on: E. coli (ATCC25922)
Experiment: Susceptibility test of microorganism to antibiotic by real-time capacitance change on interdigitated-electrode PET biosensor
Type: cell-based, Escherichia coli
Details: antibiotic 0.5 to 8 μg/mL; for susceptibility of E. coli (ATCC25922) to antibiotic: 10^5 cells/mL; for capacitance change after treatment with antibiotic: E. coli (ATCC25922) 10^5 cells/mL
Experimental: The strain used in the experiment was Escherichia coli (ATCC25922), and a standard strain was purchased from ATCC of the United States and used. For the culture of the strain, the Mueller-Hinton media (MH media), which is a culture medium recommended by the US standard CLSI and European standard EUCAST, was purchased from DIFCO and used according to the recommended preparation method in the product manual. After culturing the strain in the MH media for 24 hours, the strain culture medium was adjusted to McFarland OD 0.5, and then diluted 1/100 with the culture medium (strain concentration: 5×10^5 to 10^6 cfu/mL) and treated on the sensor.
The susceptibility of microorganisms to antibiotics was measured by using the sensors fabricated in Examples 1 and 2.

[1] = sensor of Example 1 (PET substrate-Ag electrode), FIG. 4b
[2] = sensor of Example 2 (PET substrate-Au electrode), FIG. 5c

CC1(C)S[C@@H]2[C@H](NC(=O)[C@H](N)c3ccccc3)C(=O)N2[C@H]1C(=O)O [ampicillin]
susceptibility of E. coli (ATCC25922) to antibiotic [1]: tolerance (resistance) | capacitance change after treatment with antibiotic [1]: significantly increased capacitance change | susceptibility of E. coli (ATCC25922) to antibiotic [2]: resistance | capacitance change after treatment with antibiotic [2]: capacitance change significantly increased
